Test results reported in publication PMC5564600 (Oncotarget, 2017).

Columns and labels:
Assay in all cases: biochemical
Format in all cases: binding
panel of 442 kinases [1] = target: T1, panel of 442 kinases (Homo sapiens, UniProt O15075); details: DCAMKL1; for remaining activity at 1 µM: read-out: % of control at 1 µM
T1 construct: purchased Ambit Biosciences (scanMAXX KINOMEscan)

panel of 442 kinases [2] = target: T2, panel of 442 kinases (Homo sapiens, UniProt P07948); details: kinase LYN; for remaining activity at 1 µM: read-out: % of control at 1 µM
T2 construct: purchased Ambit Biosciences (scanMAXX KINOMEscan)

panel of 442 kinases [3] = target: T3, panel of 442 kinases (Homo sapiens, UniProt P10721, V559D/V654A); details: kinase KIT(V559D,V654A); for remaining activity at 1 µM: read-out: % of control at 1 µM
T3 construct: purchased Ambit Biosciences (scanMAXX KINOMEscan)

panel of 442 kinases [4] = target: T4, panel of 442 kinases (Homo sapiens, UniProt P15056); details: BRAF; for remaining activity at 1 µM: read-out: % of control at 1 µM
T4 construct: purchased Ambit Biosciences (scanMAXX KINOMEscan)

panel of 442 kinases [5] = target: T5, panel of 442 kinases (Homo sapiens, UniProt P43403); details: kinase ZAP70; for remaining activity at 1 µM: read-out: ZAP70 (% of control at 1 µM)
T5 construct: purchased Ambit Biosciences (scanMAXX KINOMEscan)
T5 sequence (P43403 1-619): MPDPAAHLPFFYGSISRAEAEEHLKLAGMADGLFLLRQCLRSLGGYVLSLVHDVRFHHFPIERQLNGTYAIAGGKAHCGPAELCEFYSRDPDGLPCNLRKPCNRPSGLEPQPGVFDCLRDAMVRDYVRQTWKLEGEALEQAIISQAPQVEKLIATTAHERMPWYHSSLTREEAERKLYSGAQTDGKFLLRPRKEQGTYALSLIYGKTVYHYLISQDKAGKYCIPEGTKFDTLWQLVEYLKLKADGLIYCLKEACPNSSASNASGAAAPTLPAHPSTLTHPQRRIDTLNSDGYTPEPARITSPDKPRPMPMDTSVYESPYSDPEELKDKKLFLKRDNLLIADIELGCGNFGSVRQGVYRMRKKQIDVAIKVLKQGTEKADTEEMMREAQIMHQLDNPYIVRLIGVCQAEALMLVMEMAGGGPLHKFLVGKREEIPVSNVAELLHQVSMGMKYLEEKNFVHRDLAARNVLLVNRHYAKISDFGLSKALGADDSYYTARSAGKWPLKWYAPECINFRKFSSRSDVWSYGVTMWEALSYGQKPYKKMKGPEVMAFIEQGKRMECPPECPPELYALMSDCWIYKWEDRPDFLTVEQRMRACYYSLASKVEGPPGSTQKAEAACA

panel of 442 kinases [6] = target: T6, panel of 442 kinases (Homo sapiens, UniProt P49674); details: CSNK1E; for remaining activity at 1 µM: read-out: % of control at 1 µM
T6 construct: purchased Ambit Biosciences (scanMAXX KINOMEscan)

panel of 442 kinases [7] = target: T7, panel of 442 kinases (Homo sapiens, UniProt Q86V86); details: kinase PIM3; for remaining activity at 1 µM: read-out: % of control at 1 µM
T7 construct: purchased Ambit Biosciences (scanMAXX KINOMEscan)

panel of 442 kinases [8] = target: T8, panel of 442 kinases (Homo sapiens, UniProt Q8N568); details: DCAMKL2; for remaining activity at 1 µM: read-out: % of control at 1 µM
T8 construct: purchased Ambit Biosciences (scanMAXX KINOMEscan)

panel of 442 kinases [9] = target: T9, panel of 442 kinases (Homo sapiens, UniProt Q8TD08); details: ERK8; for remaining activity at 1 µM: read-out: % of control at 1 µM
T9 construct: purchased Ambit Biosciences (scanMAXX KINOMEscan)
T9 sequence (Q8TD08 1-544): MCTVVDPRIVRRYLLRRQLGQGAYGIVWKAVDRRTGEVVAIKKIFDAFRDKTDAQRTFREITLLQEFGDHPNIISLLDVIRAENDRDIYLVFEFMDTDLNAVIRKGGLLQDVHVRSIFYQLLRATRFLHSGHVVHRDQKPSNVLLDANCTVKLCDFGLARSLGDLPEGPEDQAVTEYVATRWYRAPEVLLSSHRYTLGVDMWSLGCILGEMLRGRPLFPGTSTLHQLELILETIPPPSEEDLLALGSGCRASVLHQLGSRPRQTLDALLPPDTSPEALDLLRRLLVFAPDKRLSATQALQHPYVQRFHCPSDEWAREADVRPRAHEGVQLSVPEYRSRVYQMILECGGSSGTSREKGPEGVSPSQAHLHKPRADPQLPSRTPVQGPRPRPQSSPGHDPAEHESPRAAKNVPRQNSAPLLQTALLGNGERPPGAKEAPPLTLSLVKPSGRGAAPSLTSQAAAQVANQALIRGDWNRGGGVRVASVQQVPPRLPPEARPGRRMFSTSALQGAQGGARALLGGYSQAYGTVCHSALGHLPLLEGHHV

panel of 442 kinases [10] = target: T10, panel of 442 kinases (Homo sapiens, UniProt Q96GD4); details: AURKB; for remaining activity at 1 µM: read-out: % of control at 1 µM
T10 construct: purchased Ambit Biosciences (scanMAXX KINOMEscan)

panel of 442 kinases [11] = target: T11, panel of 442 kinases (Homo sapiens, UniProt Q9C098); details: DCAMKL3; for remaining activity at 1 µM: read-out: % of control at 1 µM
T11 construct: purchased Ambit Biosciences (scanMAXX KINOMEscan)

panel of 442 kinases [12] = target: T12, panel of 442 kinases (Homo sapiens, UniProt Q9UKI8); details: kinase TLK1; for remaining activity at 1 µM: read-out: TLK1 (% of control at 1 µM)
T12 construct: purchased Ambit Biosciences (scanMAXX KINOMEscan)
T12 sequence (Q9UKI8 1-766): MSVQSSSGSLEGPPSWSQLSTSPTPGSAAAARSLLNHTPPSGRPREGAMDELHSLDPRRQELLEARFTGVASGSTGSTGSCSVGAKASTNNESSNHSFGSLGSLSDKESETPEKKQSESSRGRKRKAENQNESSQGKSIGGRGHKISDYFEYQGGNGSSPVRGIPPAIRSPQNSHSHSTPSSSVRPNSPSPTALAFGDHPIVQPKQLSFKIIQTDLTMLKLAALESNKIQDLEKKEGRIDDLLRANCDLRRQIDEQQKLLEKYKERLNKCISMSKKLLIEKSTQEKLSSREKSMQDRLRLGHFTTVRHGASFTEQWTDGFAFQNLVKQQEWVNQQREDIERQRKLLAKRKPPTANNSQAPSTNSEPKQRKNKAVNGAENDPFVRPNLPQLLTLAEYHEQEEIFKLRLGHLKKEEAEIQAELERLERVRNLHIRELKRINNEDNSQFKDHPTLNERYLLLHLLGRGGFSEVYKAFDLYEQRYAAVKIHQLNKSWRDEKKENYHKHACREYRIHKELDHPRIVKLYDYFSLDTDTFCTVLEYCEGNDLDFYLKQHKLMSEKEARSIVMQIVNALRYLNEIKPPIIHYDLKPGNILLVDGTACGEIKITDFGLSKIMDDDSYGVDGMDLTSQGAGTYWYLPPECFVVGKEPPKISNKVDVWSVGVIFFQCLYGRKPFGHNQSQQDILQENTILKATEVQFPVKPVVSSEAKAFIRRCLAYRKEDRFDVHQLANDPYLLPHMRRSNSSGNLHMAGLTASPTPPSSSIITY

[13] = 10 µM, read-out: % of control at 10 µM

T11 sequence (Q9C098 whole entry): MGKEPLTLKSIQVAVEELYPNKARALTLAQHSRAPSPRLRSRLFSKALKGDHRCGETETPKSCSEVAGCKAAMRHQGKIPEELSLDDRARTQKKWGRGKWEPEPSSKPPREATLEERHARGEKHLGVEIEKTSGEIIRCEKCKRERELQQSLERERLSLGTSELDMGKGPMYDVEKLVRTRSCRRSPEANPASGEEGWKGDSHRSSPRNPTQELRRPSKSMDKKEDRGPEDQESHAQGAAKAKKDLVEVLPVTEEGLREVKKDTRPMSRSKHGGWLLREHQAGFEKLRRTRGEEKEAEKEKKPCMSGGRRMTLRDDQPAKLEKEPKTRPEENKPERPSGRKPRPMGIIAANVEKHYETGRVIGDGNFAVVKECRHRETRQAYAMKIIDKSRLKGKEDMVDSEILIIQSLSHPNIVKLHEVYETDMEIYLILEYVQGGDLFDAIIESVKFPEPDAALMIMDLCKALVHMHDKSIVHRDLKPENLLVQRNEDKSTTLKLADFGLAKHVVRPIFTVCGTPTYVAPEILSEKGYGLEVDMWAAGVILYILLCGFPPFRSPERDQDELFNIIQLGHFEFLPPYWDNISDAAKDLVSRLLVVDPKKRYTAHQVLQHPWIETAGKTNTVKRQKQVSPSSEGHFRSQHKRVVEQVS
T1 sequence (O15075 whole entry): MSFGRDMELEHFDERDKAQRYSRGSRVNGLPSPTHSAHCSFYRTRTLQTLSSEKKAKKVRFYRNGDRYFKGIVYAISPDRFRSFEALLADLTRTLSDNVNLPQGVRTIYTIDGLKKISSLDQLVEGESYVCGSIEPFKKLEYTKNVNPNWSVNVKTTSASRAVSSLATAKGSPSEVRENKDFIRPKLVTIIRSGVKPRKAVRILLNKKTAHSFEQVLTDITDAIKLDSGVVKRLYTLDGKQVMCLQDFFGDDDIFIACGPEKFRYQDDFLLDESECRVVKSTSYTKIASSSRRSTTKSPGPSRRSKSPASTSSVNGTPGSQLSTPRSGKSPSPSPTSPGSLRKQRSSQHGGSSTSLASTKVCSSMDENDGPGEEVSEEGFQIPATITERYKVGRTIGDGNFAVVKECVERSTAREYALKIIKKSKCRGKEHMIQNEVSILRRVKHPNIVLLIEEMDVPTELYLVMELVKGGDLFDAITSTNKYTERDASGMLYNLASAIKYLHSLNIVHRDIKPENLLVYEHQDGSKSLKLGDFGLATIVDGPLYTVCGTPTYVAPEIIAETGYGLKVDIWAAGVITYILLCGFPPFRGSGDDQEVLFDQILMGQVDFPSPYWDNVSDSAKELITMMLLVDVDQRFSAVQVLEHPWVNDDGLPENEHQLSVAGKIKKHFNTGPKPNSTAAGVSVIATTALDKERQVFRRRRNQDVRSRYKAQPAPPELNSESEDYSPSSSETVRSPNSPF
T3 sequence (P10721 26-976 V559D/V654A): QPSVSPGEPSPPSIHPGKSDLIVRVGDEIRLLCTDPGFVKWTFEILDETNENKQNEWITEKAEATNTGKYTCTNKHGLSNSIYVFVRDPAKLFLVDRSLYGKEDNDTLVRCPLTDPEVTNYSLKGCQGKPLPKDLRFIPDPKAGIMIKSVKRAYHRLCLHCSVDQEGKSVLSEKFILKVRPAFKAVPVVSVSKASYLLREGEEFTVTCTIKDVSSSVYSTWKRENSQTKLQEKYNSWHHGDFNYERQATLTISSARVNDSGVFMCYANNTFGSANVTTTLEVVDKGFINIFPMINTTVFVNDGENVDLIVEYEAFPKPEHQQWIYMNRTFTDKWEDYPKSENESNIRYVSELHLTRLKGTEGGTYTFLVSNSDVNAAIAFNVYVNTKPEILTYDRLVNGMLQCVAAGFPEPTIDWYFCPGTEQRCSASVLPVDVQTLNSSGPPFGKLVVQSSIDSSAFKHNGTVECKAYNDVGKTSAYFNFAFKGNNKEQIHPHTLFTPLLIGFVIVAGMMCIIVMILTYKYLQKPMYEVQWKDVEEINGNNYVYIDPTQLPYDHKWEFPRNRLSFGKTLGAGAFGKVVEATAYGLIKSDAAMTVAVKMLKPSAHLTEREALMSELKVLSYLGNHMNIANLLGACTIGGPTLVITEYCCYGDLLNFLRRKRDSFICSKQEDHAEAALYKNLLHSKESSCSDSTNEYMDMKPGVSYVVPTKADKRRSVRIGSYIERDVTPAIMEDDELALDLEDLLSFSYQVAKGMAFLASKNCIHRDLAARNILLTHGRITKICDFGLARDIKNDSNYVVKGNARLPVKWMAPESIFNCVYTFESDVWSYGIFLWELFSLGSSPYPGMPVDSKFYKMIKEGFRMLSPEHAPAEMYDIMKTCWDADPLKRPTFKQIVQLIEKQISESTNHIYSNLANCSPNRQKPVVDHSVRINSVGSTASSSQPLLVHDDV
T6 sequence (P49674 whole entry): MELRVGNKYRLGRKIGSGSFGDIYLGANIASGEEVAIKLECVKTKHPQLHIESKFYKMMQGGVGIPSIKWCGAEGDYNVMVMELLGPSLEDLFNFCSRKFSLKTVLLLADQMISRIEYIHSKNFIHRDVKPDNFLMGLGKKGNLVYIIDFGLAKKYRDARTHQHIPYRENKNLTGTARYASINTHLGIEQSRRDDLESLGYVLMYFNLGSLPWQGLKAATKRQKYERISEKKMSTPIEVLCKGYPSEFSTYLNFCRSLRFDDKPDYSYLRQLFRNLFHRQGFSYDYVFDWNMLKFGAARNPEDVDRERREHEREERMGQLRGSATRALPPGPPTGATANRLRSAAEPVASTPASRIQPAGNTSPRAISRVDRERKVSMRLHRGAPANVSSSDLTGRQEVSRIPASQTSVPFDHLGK
T10 sequence (Q96GD4 whole entry): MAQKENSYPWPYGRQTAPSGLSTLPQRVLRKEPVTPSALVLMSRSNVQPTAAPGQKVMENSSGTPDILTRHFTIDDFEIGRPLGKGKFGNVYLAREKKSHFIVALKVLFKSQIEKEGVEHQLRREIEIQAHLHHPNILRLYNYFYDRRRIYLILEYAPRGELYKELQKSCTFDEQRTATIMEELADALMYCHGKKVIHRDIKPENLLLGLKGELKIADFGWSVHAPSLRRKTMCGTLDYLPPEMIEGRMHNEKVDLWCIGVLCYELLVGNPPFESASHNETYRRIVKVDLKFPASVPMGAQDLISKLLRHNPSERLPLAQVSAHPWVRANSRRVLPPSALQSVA
T8 sequence (Q8N568 whole entry): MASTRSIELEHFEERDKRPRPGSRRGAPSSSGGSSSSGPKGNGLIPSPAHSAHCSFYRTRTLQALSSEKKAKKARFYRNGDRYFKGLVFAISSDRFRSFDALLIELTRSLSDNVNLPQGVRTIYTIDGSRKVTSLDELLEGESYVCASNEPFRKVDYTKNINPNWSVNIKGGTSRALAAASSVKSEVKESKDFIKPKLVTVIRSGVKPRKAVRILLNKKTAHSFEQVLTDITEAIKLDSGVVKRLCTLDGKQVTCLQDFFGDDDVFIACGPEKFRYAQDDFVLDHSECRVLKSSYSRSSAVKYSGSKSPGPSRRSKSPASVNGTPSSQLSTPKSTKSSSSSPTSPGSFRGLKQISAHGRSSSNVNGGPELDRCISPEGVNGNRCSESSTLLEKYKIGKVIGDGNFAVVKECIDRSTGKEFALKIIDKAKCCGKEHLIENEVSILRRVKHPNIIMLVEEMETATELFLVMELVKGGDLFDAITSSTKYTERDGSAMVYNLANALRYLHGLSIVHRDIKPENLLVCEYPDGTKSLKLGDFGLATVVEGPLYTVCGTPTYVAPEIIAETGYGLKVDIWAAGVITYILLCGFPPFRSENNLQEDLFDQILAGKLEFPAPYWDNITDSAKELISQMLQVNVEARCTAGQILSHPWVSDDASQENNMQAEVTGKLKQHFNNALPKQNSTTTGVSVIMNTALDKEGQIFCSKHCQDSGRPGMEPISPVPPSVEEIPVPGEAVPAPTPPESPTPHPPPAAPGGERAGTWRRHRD
T2 sequence (P07948 whole entry): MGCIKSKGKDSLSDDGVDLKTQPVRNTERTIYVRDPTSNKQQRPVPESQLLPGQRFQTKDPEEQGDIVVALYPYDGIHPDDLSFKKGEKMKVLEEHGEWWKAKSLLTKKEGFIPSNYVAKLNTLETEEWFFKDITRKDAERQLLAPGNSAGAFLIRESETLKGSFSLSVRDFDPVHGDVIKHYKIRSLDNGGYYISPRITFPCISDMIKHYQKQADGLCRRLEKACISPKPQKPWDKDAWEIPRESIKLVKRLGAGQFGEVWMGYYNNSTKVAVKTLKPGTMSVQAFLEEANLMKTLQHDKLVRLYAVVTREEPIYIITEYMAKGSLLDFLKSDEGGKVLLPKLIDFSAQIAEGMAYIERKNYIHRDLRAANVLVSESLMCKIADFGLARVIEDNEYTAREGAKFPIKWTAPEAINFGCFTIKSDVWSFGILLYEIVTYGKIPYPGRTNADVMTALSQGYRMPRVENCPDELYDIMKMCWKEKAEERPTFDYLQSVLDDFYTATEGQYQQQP

**Q.** Which remaining activity at 1 µM (panel of 442 kinases [1]) does the source give for `Nc1cc(C(F)(F)F)c(-c2cc(N3CCOCC3)nc(N3CCOCC3)n2)cn1` [Buparlisib] here?
**A.** 100%

**Q.** And the remaining activity at 10 µM (panel of 442 kinases [1]; [13])?
**A.** 92%

**Q.** And the remaining activity at 1 µM (panel of 442 kinases [2])?
**A.** 84%

**Q.** What about the remaining activity at 10 µM (panel of 442 kinases [2]; [13]) of the same compound?
**A.** 100%

**Q.** And the remaining activity at 1 µM (panel of 442 kinases [3])?
**A.** 100%

**Q.** What about the remaining activity at 10 µM (panel of 442 kinases [3]; [13]) of the same compound?
**A.** 98%

**Q.** And the remaining activity at 1 µM (panel of 442 kinases [4])?
**A.** 59%

**Q.** And the remaining activity at 10 µM (panel of 442 kinases [4]; [13])?
**A.** 40%

**Q.** And the remaining activity at 1 µM (panel of 442 kinases [5])?
**A.** 100%

**Q.** And the remaining activity at 10 µM (panel of 442 kinases [5]; 10 µM, read-out: ZAP70 (% of control at 10 µM))?
**A.** 100%

**Q.** And the remaining activity at 1 µM (panel of 442 kinases [6])?
**A.** 100%

**Q.** What about the remaining activity at 10 µM (panel of 442 kinases [6]; [13]) of the same compound?
**A.** 72%

**Q.** And the remaining activity at 1 µM (panel of 442 kinases [7])?
**A.** 100%

**Q.** And the remaining activity at 10 µM (panel of 442 kinases [7]; [13])?
**A.** 93%

**Q.** What about the remaining activity at 1 µM (panel of 442 kinases [8]) of the same compound?
**A.** 100%

**Q.** And the remaining activity at 10 µM (panel of 442 kinases [8]; [13])?
**A.** 100%

**Q.** What about the remaining activity at 1 µM (panel of 442 kinases [9]) of the same compound?
**A.** 100%

**Q.** What about the remaining activity at 10 µM (panel of 442 kinases [9]; [13]) of the same compound?
**A.** 100%

**Q.** And the remaining activity at 1 µM (panel of 442 kinases [10])?
**A.** 93%

**Q.** What about the remaining activity at 10 µM (panel of 442 kinases [10]; [13]) of the same compound?
**A.** 100%

**Q.** And the remaining activity at 1 µM (panel of 442 kinases [11])?
**A.** 100%

**Q.** And the remaining activity at 10 µM (panel of 442 kinases [11]; [13])?
**A.** 100%

**Q.** And the remaining activity at 1 µM (panel of 442 kinases [12])?
**A.** 100%

**Q.** And the remaining activity at 10 µM (panel of 442 kinases [12]; 10 µM, read-out: TLK1 (% of control at 10 µM))?
**A.** 82%

**Q.** What does the source list for `Cn1c(=O)n(-c2ccc(C(C)(C)C#N)cc2)c2c3cc(-c4cnc5ccccc5c4)ccc3ncc21` [Dactolisib, 2-methyl-2-[4-(3-methyl-2-oxo-8-quinolin-3-yl-2,3-dihydroimidazo[4,5-c]quinolin-1-yl)-phenyl] propionitrile]?
**A.** remaining activity at 1 µM (panel of 442 kinases [1]): 100%; remaining activity at 1 µM (panel of 442 kinases [2]): 87%; remaining activity at 1 µM (panel of 442 kinases [3]): 84%; remaining activity at 1 µM (panel of 442 kinases [4]): 88%; remaining activity at 1 µM (panel of 442 kinases [5]): 99%; remaining activity at 1 µM (panel of 442 kinases [6]): 54%; remaining activity at 1 µM (panel of 442 kinases [7]): 100%; remaining activity at 1 µM (panel of 442 kinases [8]): 94%; remaining activity at 1 µM (panel of 442 kinases [9]): 86%; remaining activity at 1 µM (panel of 442 kinases [11]): 100%; remaining activity at 1 µM (panel of 442 kinases [12]): 75%

**Q.** Which results are given for `COc1ncc(-c2ccc3nccc(-c4ccnnc4)c3c2)cc1NS(=O)(=O)c1ccc(F)cc1F` [Omipalisib]?
**A.** remaining activity at 1 µM (panel of 442 kinases [1]): 92%; remaining activity at 1 µM (panel of 442 kinases [2]): 100%; remaining activity at 1 µM (panel of 442 kinases [3]): 100%; remaining activity at 1 µM (panel of 442 kinases [5]): 100%; remaining activity at 1 µM (panel of 442 kinases [6]): 100%; remaining activity at 1 µM (panel of 442 kinases [7]): 86%; remaining activity at 1 µM (panel of 442 kinases [8]): 100%; remaining activity at 1 µM (panel of 442 kinases [9]): 100%; remaining activity at 1 µM (panel of 442 kinases [10]): 100%; remaining activity at 1 µM (panel of 442 kinases [11]): 100%; remaining activity at 1 µM (panel of 442 kinases [12]): 95%

**Q.** What does the source list for `FC(F)c1nc2ccccc2n1-c1nc(N2CCOCC2)nc(N2CCOCC2)n1` [ZSTK474, 2-(difluoromethyl)-1-[4,6-di(4-morpholinyl)-1,3,5-triazin-2-yl]-1H-benzimidazole]?
**A.** remaining activity at 1 µM (panel of 442 kinases [1]): 97%; remaining activity at 1 µM (panel of 442 kinases [2]): 100%; remaining activity at 1 µM (panel of 442 kinases [3]): 95%; remaining activity at 1 µM (panel of 442 kinases [4]): 61%; remaining activity at 1 µM (panel of 442 kinases [5]): 94%; remaining activity at 1 µM (panel of 442 kinases [6]): 100%; remaining activity at 1 µM (panel of 442 kinases [7]): 95%; remaining activity at 1 µM (panel of 442 kinases [8]): 100%; remaining activity at 1 µM (panel of 442 kinases [9]): 100%; remaining activity at 1 µM (panel of 442 kinases [10]): 90%; remaining activity at 1 µM (panel of 442 kinases [11]): 100%; remaining activity at 1 µM (panel of 442 kinases [12]): 100%
